Reference: patent publication US20220380338A1, “CYCLOALKYL 3-OXOPIPERAZINE CARBOXAMIDES AND CYCLOHETEROALKYL 3-OXOPIPERAZINE CARBOXAMIDES AS NAV1.8 INHIBITORS” (Merck Sharp & Dohme LLC, priority 2021, published 2022)

Molecular target: T1, human NaV1.8 (Homo sapiens, UniProt Q9Y5Y9)
T1 construct: expressed in transfected cells
Assay: Nav1.8 Qube® Assay (automated 384-well patch-clamp, inhibition of sodium current)
Assay type: cell-based
Settings: human NaV1.8 channels stably expressed in HEK 293 cells, room temperature
Experimental: Compounds were tested on human NaV1.8 and NaV1.5 channels stably expressed in human embryo kidney (HEK) 293 cells. Sodium current measurements on Qube® were conducted as follows: automated 384-well patch-clamp assays on the Qube® platform (Sophion Biosciences) were used to measure the inhibition of sodium flow through human NaV1.8 and NaV1.5 channels. Whole-cell voltage-clamp recordings were performed in QChips® (Sophion Biosciences) at room temperature. NaV1.8 current measurements on Qube® were obtained as follows: NaV1.8 currents were elicited with a 10 second 1 Hertz (Hz) pulse train from a holding potential of −90 millivolts (mV), delivered to the cells once per minute in the control condition (DMSO only) and after compound addition. The 1 hertz pulse train stimulation consisted of ten test pulses to 10 millivolt (mV) for 20 milliseconds (ms), each of which was followed by a 980 millisecond repolarization to −67 millivolts. At the end of the 10 second pulse train stimulation, a 5 second hyperpolarization step to −100 millivolt (mV) was used to recover NaV1.8 from fast inactivation. The peak currents elicited by the 1st and 10th test pulses were used to determine IC50 values for resting inhibition and inactivated state inhibition. NaV1.5 current measurements on Qube® were obtained as follows: NaV1.5 currents were elicited with a 20 second 3 Hertz pulse train in the control condition (DMSO only) and after compound addition. The pulse train consisted of sixty 20 millisecond test pulses to 0 millivolt from a holding potential of −80 millivolt (mV). The average peak currents elicited by the last 3 test pulses were used to determine IC50 values for NaV1.5 inhibition.
The following buffers were used for the Qube® recordings: External buffer for NaV1.8 Qube® recording: 150 NaCl, 2 CaCl2, 5 KCl, 1 Mg Cl2, 10 HEPES, 12 Dextrose; External buffer for Qube® NaV1.5 recording: 120 N-Methyl-D-Glucamine, 40 NaCl, 1 KCl, 2.7 CaCl2, 5 HEPES, 0.5 MgCl2; and Internal buffer for Qube® recording: 120 CsF, 30 CsCl, 10 EGTA, 5 HEPES, 5 NaF, 2 MgCl2.
For all Qube® experiments offline analysis was used to determine percent inhibition as a function of drug concentration. IC50 values were determined by fitting to the Hill equation.

T1 sequence (Q9Y5Y9 whole entry): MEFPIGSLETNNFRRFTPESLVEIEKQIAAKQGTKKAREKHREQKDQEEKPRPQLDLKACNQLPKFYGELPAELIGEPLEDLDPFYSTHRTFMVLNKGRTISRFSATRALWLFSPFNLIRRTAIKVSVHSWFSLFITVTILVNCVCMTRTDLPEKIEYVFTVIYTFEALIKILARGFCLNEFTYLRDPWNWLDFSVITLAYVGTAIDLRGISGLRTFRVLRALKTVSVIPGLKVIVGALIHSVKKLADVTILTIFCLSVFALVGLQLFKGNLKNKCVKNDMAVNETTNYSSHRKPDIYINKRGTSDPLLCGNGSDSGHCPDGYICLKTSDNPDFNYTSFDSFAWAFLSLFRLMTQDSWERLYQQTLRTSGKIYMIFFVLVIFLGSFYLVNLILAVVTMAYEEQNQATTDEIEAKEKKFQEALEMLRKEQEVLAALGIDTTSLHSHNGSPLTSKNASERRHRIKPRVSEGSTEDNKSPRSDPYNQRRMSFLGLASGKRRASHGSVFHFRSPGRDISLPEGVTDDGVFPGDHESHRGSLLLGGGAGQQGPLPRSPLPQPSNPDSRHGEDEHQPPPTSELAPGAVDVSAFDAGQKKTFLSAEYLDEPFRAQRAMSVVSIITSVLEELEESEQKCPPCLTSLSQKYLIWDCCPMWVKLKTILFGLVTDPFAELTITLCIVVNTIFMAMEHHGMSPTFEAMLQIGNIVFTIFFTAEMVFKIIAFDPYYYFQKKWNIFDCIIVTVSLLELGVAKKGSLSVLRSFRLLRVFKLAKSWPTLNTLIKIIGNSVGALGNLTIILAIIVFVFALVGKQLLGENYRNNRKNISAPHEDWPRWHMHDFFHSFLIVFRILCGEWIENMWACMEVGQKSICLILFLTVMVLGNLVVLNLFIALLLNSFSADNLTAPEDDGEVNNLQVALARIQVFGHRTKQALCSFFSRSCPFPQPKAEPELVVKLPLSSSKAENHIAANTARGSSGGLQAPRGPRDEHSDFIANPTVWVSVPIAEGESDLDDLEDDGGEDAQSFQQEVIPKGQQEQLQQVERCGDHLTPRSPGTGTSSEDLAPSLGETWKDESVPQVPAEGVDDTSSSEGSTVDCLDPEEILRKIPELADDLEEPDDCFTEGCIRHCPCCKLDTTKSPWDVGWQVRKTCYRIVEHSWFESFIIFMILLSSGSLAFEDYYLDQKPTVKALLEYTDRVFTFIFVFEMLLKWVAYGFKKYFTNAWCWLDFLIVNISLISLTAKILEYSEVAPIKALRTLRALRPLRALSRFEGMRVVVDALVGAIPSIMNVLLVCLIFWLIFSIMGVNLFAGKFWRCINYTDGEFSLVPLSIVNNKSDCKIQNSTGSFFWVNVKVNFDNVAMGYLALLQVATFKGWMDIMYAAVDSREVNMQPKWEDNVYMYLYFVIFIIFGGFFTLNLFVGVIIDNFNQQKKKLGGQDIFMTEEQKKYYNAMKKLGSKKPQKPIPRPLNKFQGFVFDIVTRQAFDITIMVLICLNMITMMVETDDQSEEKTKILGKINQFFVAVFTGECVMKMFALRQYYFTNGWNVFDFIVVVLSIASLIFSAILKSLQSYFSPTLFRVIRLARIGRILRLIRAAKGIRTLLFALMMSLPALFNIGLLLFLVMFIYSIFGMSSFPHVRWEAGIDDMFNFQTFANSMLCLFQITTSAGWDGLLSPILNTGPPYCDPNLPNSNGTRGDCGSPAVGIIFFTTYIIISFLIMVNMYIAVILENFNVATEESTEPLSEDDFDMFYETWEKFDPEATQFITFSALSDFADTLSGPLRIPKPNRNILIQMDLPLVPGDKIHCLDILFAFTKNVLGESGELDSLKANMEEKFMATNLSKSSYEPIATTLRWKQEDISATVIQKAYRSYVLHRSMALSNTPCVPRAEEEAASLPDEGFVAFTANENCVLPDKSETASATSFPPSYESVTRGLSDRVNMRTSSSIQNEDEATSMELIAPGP

Row | SMILES | IC50 [nM]
1 | C[C@@H]1C(=O)NCCN1C(=O)NC(c1ccc(Cl)c(C(F)(F)F)n1)C1CC(C(F)(F)F)C1 (single isomer, unassigned) [Example 47C, (2R)—N—((S or R)-(5-chloro-6-(trifluoromethyl)pyridin-2-yl)(trans-3-(trifluoromethyl)cyclobutyl)methyl)-2-methyl-3-oxopiperazine-1-carboxamide] | 2.66
2 | C[C@@H]1C(=O)NCCN1C(=O)NC(c1ccc(F)c(Cl)c1)C1CCC2(CC1)CC2(F)F (single isomer, unassigned) [Example 19A] | 5.75
3 | O=C1CN(C(=O)NC(c2ccc(F)c(Cl)c2)C23CCC(C(F)(F)F)(CC2)CC3)CCN1 (single isomer, unassigned) [Example 12A, N-((R or S)-(3-chloro-4-fluoro-phenyl)(4-(trifluoro-methyl)bicyclo[2.2.2]octan-1-yl)methyl)-3-oxopiperazine-1-carboxamide] | 343
4 | C[C@@H]1C(=O)NCCN1C(=O)NC(C)(c1ccc(F)c(Cl)c1)C1CC(C(F)(F)F)C1 (single isomer, unassigned) [Example 48D, (2R)—N—((S or R)-1-(3-chloro-4-fluorophenyl)-1-(trans-3-(trifluoromethyl)cyclobutyl)ethyl)-2-methyl-3-oxopiperazine-1-carboxamide] | 515
5 | C[C@@H]1C(=O)NCCN1C(=O)NC(c1ccc(F)c(Cl)c1F)[C@@H]1C[C@@H]2[C@H](C1)C2(F)F (single isomer, unassigned) [Example 11B, (R)-N-((S or R)-(3-chloro-2,4-difluoro-phenyl)((1R,3s,5S)-6,6-difluoro-bicyclo[3.1.0]hexan-3-yl)methyl)-2-methyl-3-oxo-piperazine-1-carboxamide] | 4.14
6 | C[C@@H]1C(=O)NCCN1C(=O)NC(c1ccc(F)c(Cl)c1)C1CCN(CC(F)(F)F)CC1 (single isomer, unassigned) [Example 15A] | 28.3
7 | C[C@@H]1C(=O)NCCN1C(=O)NC(c1ccc(F)c(Cl)c1)C1CC(OC(F)F)C1 (single isomer, unassigned) [Example 38D, (2R)-N-((S or R)-(3-chloro-4-fluorophenyl)-(trans-3-(difluoro-methoxy)cyclobutyl)-methyl)-2-methyl-3-oxopiperazine-1-carboxamide] | 17.9
8 | C[C@@H]1C(=O)NCCN1C(=O)NC(c1ccc(Cl)c(C(F)F)c1)C1CCC(C(F)(F)F)CC1 (single isomer, unassigned) [Example 37C, (2R)-N-((S or R)-(4-chloro-3-(difluoro-methyl)phenyl)(cis-4-(trifluoromethyl)cyclohexyl)methyl)-2-methyl-3-oxopiperazine-1-carboxamide] | 27.2
9 | C[C@@H]1C(=O)NCCN1C(=O)NC(c1ccc(F)c(Cl)c1F)C12CC(C(F)(F)F)(C1)C2 (single isomer, unassigned) [Example 30B] | 3.12
10 | O=C1CN(C(=O)NC(c2ccc(Cl)c(C(F)(F)F)n2)C2CCC(C(F)(F)F)CC2)CCN1 (single isomer, unassigned) [Example 45A] | 283
11 | C[C@@H]1C(=O)NCCN1C(=O)NC(c1ccc(F)c(Cl)c1)C1CC(C(F)(F)F)C1 (single isomer, unassigned) [Example 43A, (2R)-N-((R or S)-(3-chloro-4-fluorophenyl)-(trans-3-(trifluoro-methyl)-cyclobutyl)-methyl)-2-methyl-3-oxopiperazine-1-carboxamide] | 39.6
12 | C[C@@H]1C(=O)NCCN1C(=O)NC(c1ccc(F)c(Cl)c1F)C1CC(OC(F)F)C1 (single isomer, unassigned) [Example 39D, (2R)-N-((S or R)-(3-chloro-2,4-difluoro-phenyl)(trans-3-(difluoro-methoxy)cyclobutyL)-methyl)-2-methyl-3-oxopiperazine-1-carboxamide] | 8.1
13 | C[C@@H]1C(=O)NCCN1C(=O)NC(C)(c1ccc(F)c(Cl)c1)C1CC(C(F)(F)F)C1 (single isomer, unassigned) [Example 48B, (2R)—N—((R or S)-1-(3-chloro-4-fluorophenyl)-1-(trans-3-(trifluoromethyl)cyclobutyl)ethyl)-2-methyl-3-oxopiperazine-1-carboxamide] | 904
14 | C[C@@H]1C(=O)NCCN1C(=O)NC(c1ccc(F)c(Cl)c1F)[C@H]1C[C@H](C(F)F)C1 (single isomer, unassigned) [Example 29B] | 66.5
15 | C[C@@H]1C(=O)NCCN1C(=O)NC(c1ccc(F)c(Cl)c1F)C1CC2(C1)CC2(F)F (single isomer, unassigned) [Example 22B, (2R)-N-((R or S)-(3-chloro-2,4-difluoro-phenyl)(cis or trans-1,1-difluoro-spiro[2,3]-hexan-5-yl)methyl)-2-methyl-3-oxopiperazine-1-carboxamide] | 5.89
16 | C[C@@H]1C(=O)NCCN1C(=O)NC(c1ccc(F)c(Cl)c1F)C1CCC(C(F)(F)F)C1 (single isomer, unassigned) [Example 58D, (2R)—N—((R or S)-(3-chloro-2,4-difluorophenyl)(trans-3-(trifluoromethyl)cyclopentyl)methyl)-2-methyl-3-oxopiperazine-1-carboxamide] | 6.03
17 | C[C@@H]1C(=O)NCCN1C(=O)NC(c1ccc(F)c(C(F)(F)F)c1)C1CCC(C(F)(F)F)OC1 (single isomer, unassigned) [Example 60B, (2R)—N-((1(R or S))-(4-fluoro-3-(trifluoromethyl)phenyl)-trans-(6-(trifluoromethyl)tetrahydro-2H-pyran-3-yl)methyl)-2-methyl-3-oxopiperazine-1-carboxamide] | 51.2
18 | O=C1CN(C(=O)N[C@H](c2ccc(Cl)cc2)C2CCC(C(F)(F)F)CC2)CCN1 (single isomer, unassigned) [Example 4B, N-((S or R)-(4-chlorophenyl)(trans-4-(trifluoromethyl)-cyclohexyl)methyl)-3-oxopiperazine-1-carboxamide] | 288
19 | O=C1NCCN(C(=O)N[C@H](c2ccc(F)c(Cl)c2F)[C@H]2C[C@H](C(F)(F)F)C2)C1C1CC1 (single isomer, unassigned) [Example 27B, (S or R)—N—((S)-(3-chloro-2,4-difluorophenyl)(trans-3-(trifluoromethyl)cyclobutyl)methyl)-2-cyclopropyl-3-oxopiperazine-1-carboxamide] | 107
20 | C[C@@H]1C(=O)NCCN1C(=O)NC(c1ccc(F)c(Cl)c1F)C1CCC(F)(F)C1 (single isomer, unassigned) [Example 42A, (2R)-N-((R or S)-(3-choro-2,4-difluoro-phenyl)((R or S)-3,3-difluorocyclopentyl)-methyl)-2-methyl-3-oxopiperazine-1-carboxamide] | 321
21 | C[C@@H]1C(=O)NCCN1C(=O)NC(c1ccc(F)c(Cl)c1F)C1CC12CC2 (single isomer, unassigned) [Example 41B, (2R)-N-((S or R)-(3-chloro-2,4-difluoro-phenyl)((R or S)-spiro[2.2]pentan-1-yl)methyl)-2-methyl-3-oxopiperazine-1-carboxamide] | 1180
22 | O=C1CN(C(=O)NC(c2ccc(F)c(Cl)c2F)[C@H]2CC[C@H](C(F)(F)F)CC2)CCN1 (single isomer, unassigned) [Example 10A, N-((R or S)-(3-chloro-2,4-difluoro-phenyl)(trans-4-(trifluoromethyl)cyclo-hexyl)methyl)-3-oxopiperazine-1-carboxamide] | 311
23 | C[C@@H]1C(=O)NCCN1C(=O)NC(c1ccc(Cl)c(C(F)(F)F)n1)C1CC(C(F)(F)F)C1 (single isomer, unassigned) [Example 47D, (2R)—N—((S or R)-(5-chloro-6-(trifluoromethyl)pyridin-2-yl)(cis-3-(trifluoromethyl)-cyclobutyl)methyl)-2-methyl-3-oxopiperazine-1-carboxamide] | 36.6
24 | C[C@@H]1C(=O)NCCN1C(=O)NC(c1ccc(F)c(Cl)c1F)[C@H]1CC[C@H](C(F)(F)F)CC1 (single isomer, unassigned) [Example 9B, (2R)-N-((S or R)-(3-chloro-2,4-difluoro-phenyl)(trans-4-(trifluoromethyl)cyclo-hexyl)methyl)-2-methyl-3-oxo-piperazine-1-carboxamide] | 0.8
25 | O=C1CN(C(=O)NC(c2ccc(F)c(Cl)c2)C23CC(C(F)(F)F)(C2)C3)CCN1 (single isomer, unassigned) [Example 34A, N-((R or S)-(3-chloro-4-fluorophenyl)(3-(trifluoromethyl)bicyclo [1.1.1]pentan-1-yl)methyl)-3-oxopiperazine-1-carboxamide] | 601
